# Source: patent US5948786A, “Piperidinylpyrimidine derivatives” (Sumitomo Pharmaceuticals Company, Limited, priority 1996, dated 1999)
# What was measured:
# Format in all cases: cell-based
# [1] = test system: TNF α production from human peripheral blood mononuclear cells (PBMC); assay: Inhibitory activity of compound on TNF α production from PBMC
# Description: TNF α was induced by 10 μg/ml of LPS (E. coli O111B4, DIFCO, Detroit, Mich., USA) the cells were cultured for 18 hours at 37° C. A compound of the present invention was dissolved in DMSO and added to the culture simultaneously with LPS. […] Each well of the plate first was incubated at room temperature with biotinylated anti-mouse TNF α polyclonal antibodies (PharMingen) for 45 minutes, then with peroxidase-conjugated streptavidin (Kirkegaard & Perry Laboratories Inc., Gaitherburg, Md., USA) for 30 minutes. After each incubation, the plate was washed 4 to 8 times with PBS containing 0.2% Tween 20. TMB (Kirkegaard & Perry Laboratories Inc.) was the peroxidase substrate used and, the absorbance of each well was quantified at 450 nm by a microplatereader (Molecular Devices Corp., CA, USA). TNF α levels in the supernatant were quantified with rm-TNF α as the standard. Inhibitory activity of TNF α production was also quantified using human peripheral blood mononuclear cells(PBMC) instead of PEC's. Results are shown in table 9, 10, 11, 12, 13, 14, 15, 16, 17, 18, 19 and 20.
# [2] = test system: HIV-1 LTR-CAT gene expression in Jurkat cells; assay: PMA induced HIV-1 LTR-CAT gene expression in Jurkat cells; details: Homo sapiens, PMA 10 ng/ml, 24 hours
# Description: (§1) p469, HIV-1 LTR driven CAT and pSV-Tat, Tat-expression vector were kindly provided from Dr. Gary J. Nabel (Nature Vol. 326, 711(1987))
# (§2) RPMI 1640 medium (Life Technologies, Grand Island, N.Y., USA) was supplemented with heat-inactivated fetal calf serum (FBS; Sigma, St. Louis, Mo., USA).
# (§3) Human T lymphoma cell line, Jurkat, was cultured in medium described above Transfection;
# (§4) Introduction of plasmid DNA into cells was carried out according to the method described in Chiang, J. Li et al., Proc. Natl. Acad. Sci. Vol. 92, 5461-5464 (1995). Briefly, the cells were suspended with the medium at 2×10^7 cells/ml followed by addition 1 μg of p469 and 0.5 μg of DEAE-dextran (Sigma). In some experiments the cells were co-transfected with 0.5 μg of pSV-Tat. After 10 minutes incubation at room temperature with occasionally mixing, the cells were pulsed with electroporation apparatus at 140 V. The cells were re-suspended with the fresh medium and cultured for 20 hours at 37° C.
# (§5) A compound tested was dissolved in dimethylsulfoxide at 100 mM as a stock solution. The aliquots of the stock solution were kept frozen at -20° C. Jurkat cells transfected with p469 were treated with 10 ng/ml of phorbol 12-myristate 13-acetate (PMA; Sigma) to activate HIV-1-LTR directed CAT gene transcription in the presence of the compound. In the case of cells transfected with p469 and pSV-Tat, they were simply treated with the compound. After the cells were cultured for an additional 24 hours at 37° C., the cells were washed 2 times with phosphate-buffered saline and lysed in 50 mM Tris-HCl plus 15% glycerol with repeated cycles of freeze and thaw. The cell lysates were clarified by centrifugation followed by determination of protein concentration by Bradford method (Bio-Rad, Hercules, Calif., USA). Measurement of a CAT activity in cell lysates was carried out according to a similar method described in Fridovich-Keil J. L. et. al., Cell Growth and Differentiation, Vol. 2, 67-76(1991). Equal amount (30 μg of protein) of cell lysates was incubated at 37° C. with 35 μg of acetyl co-enzyme A (GIBCO/BRL, Grand Island, Mo., USA) and 0.1 μCi of 14C-chloramphenicol (Dupont, NEN Boston, Mass., USA) in […] solution for 2 hours. Acetyl-14C-chloramphenicol was extracted with 9 volumes of ethyl acetate and fractionated on a TLC gel with 1:19 (v/v) in methanol/chloroform. The CAT activity was detected by autoradiography and quantified by an Imaging Densitometer (model GS-700; Bio-Rad).
# [3] = test system: Tat induced HIV-1 LTR-CAT gene expression in Jurkat cells; assay: Tat induced HIV-1 LTR-CAT gene expression in Jurkat cells; details: Homo sapiens, Tat (pSV-Tat), 24 hours
# Description: as §1, §2, §3, §4, §5
# [4] = test system: TNF α production from mouse macrophages; assay: Inhibitory activity of compound on TNF α Production from mouse macrophages (LPS-induced PEC's); details: Macrophage, LPS 10 μg/ml, 18 hours
# Outline: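 Thioglycollate-elicited peritoneal macrophages from female BALB/c mice (adherent, 2×10^5 cells/well) were stimulated with 10 μg/ml LPS plus compound (final DMSO below 0.1%) for 18 h at 37°C. Supernatant TNF α was measured by sandwich ELISA (TMB, 450 nm) against a recombinant mouse TNF α standard.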
SMILES,inhibition at 30 µM [1] [%],inhibition at 5 µM [2] [%],inhibition at 5 µM [3] [%],inhibition at 30 µM [4] [%]
Nc1nc(C2CCN(C(=O)c3ccc4c(c3)OCO4)CC2)c2ccccc2n1 [Example 65],46,94,81,–
COc1ccc2nc(N)nc(C3CCN(C(=O)c4ccc5c(c4)OCO5)CC3)c2c1 [Example 117],43,92,36,54
Nc1nc(C2CCN(C(=O)c3ccc4c(c3)OCO4)CC2)c2cc(Cl)ccc2n1 [Example 130],57,67,–,100
Nc1nc(-c2ccccc2)cc(C2CCN(C(=O)c3ccc4c(c3)OCO4)CC2)n1 [Example 140],35,100,–,72
Nc1nc(-c2ccc(Cl)cc2)cc(C2CCN(C(=O)c3ccc4c(c3)OCO4)CC2)n1 [Example 150],11,54,–,100
COc1ccc(-c2cc(C3CCN(C(=O)c4ccc5c(c4)OCO5)CC3)nc(N)n2)cc1 [Example 157],37,81,–,84
"COc1ccc(Cc2cc(C3CCN(C(=O)c4ccc5c(c4)OCO5)CC3)nc(N)n2)cc1 [Example 210, 2-amino-4-(4-methoxybenzyl)-6-[1-(3,4-methylenedioxybenzoyl)-4-piperidinyl]pyrimidine]",80,81,66,75
Nc1nc(CCc2ccccc2)cc(C2CCN(C(=O)c3ccc4c(c3)OCO4)CC2)n1 [Example 259],68,25,51,–
COc1ccc(Cc2cc(C3CCN(C(=O)c4ccc5c(c4)OCO5)CC3)nc(N)n2)cc1OC [Example 306],85,75,22,–
COc1ccc(OC)c(Cc2cc(C3CCN(C(=O)c4ccc5c(c4)OCO5)CC3)nc(N)n2)c1 [Example 307],81,97,66,–
COc1cc(Cc2cc(C3CCN(C(=O)c4ccc5c(c4)OCO5)CC3)nc(N)n2)cc(OC)c1OC [Example 309],65,–,62,–
Nc1nc(Cc2ccccc2Cl)cc(C2CCN(C(=O)c3ccc4c(c3)OCO4)CC2)n1 [Example 310],83,–,67,–
Nc1nc(Cc2ccc(Cl)c(Cl)c2)cc(C2CCN(C(=O)c3ccc4c(c3)OCO4)CC2)n1 [Example 311],69,–,63,–
Nc1nc(Cc2ccc(Cl)cc2Cl)cc(C2CCN(C(=O)c3ccc4c(c3)OCO4)CC2)n1 [Example 312],57,–,65,–
Nc1nc(Cc2c(Cl)cccc2Cl)cc(C2CCN(C(=O)c3ccc4c(c3)OCO4)CC2)n1 [Example 313],91,–,69,–
Nc1nc(Cc2ccc3c(c2)OCO3)cc(C2CCN(C(=O)c3ccc4c(c3)OCO4)CC2)n1 [Example 314],84,–,76,–
